Measured values taken from patent EP4707280A1, “1,4-CINEOLE DERIVATIVE AND INTERMEDIATE THEREOF, HERBICIDE CONTAINING SAID DERIVATIVE AS ACTIVE INGREDIENT, METHOD FOR USING HERBICIDE, AND METHOD FOR PREPARING AGROCHEMICAL COMPOSITION” (HOKKO CHEMICAL INDUSTRY CO., LTD., priority 2023, dated 2024).

Columns and labels:
Assay type in all cases: in vivo
[1] = system: Echinochloa crus-galli var. formosensis; assay: Test Example 2: herbicidal effect test by application during growth period of paddy rice; details: Echinochloa crus-galli; 120 g per 10 ares; applied seven days after sowing, flooded pots; 14 days after application; read-out: weed inhibition rate
In short: (§1)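 Herbicidal effect was scored 14 days after treatment, in duplicate per concentration. Weeds sown 0–1 cm deep in puddled, fertilized paddy soil under about 3 cm of standing water received a water-diluted emulsifiable concentrate by dropper 7 days post-sowing, at 120 g a.i. per 10 ares.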

[2] = system: Digitaria ciliaris; assay: Test Example 4: herbicidal effect test by stem and leaf treatment in upland field; details: Digitaria ciliaris; 120 g per 10 ares; sprayed seven days after sowing, upland soil; 14 days after application; read-out: weed inhibition rate
[3] = system: Echinochloa crus-galli; assay: as above; details: Echinochloa crus-galli; 120 g per 10 ares; sprayed seven days after sowing, upland soil; 14 days after application; read-out: weed inhibition rate
[4] = system: Echinochloa crus-galli var. formosensis; assay: Test Example 5: herbicidal effect test by soil application in paddy rice (low dose); details: Echinochloa crus-galli, soil, 336 h; 7.5 g per 10 ares; applied immediately after sowing, flooded pots; 14 days after application; read-out: weed inhibition rate
In short: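 Dose of 7.5 g a.i. per 10 ares, applied by dropper as diluted emulsifiable concentrate to flooded (~3 cm) paddy pots immediately after sowing seeds at 0–1 cm. Kept in a glass greenhouse; duplicate pots rated at 14 days post-application.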

[5] = system: Echinochloa crus-galli var. formosensis; assay: Test Example 6: herbicidal effect test by application during growth period of paddy rice (low dose); details: Echinochloa crus-galli; 7.5 g per 10 ares; applied seven days after sowing, flooded pots; 14 days after application; read-out: weed inhibition rate
In short: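 Emulsifiable concentrate, water-diluted, dropped onto flooded paddy pots 7 days post-sowing at 7.5 g active ingredient/10 a. Greenhouse-grown weeds; percent inhibition scored at day 14 after treatment.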

[6] = system: Echinochloa crus-galli; assay: Test Example 7: herbicidal effect test by soil application in upland field (low dose); details: Echinochloa crus-galli, 7.5 g per 10 ares, sprayed one day after sowing, 14 days after application, read-out: weed inhibition rate
In short: (§2)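 Pre-emergence soil treatment: 7.5 g a.i. per 10 a applied as water-diluted emulsifiable concentrate (100 L/10 a) to soil surface one day post-sowing in alluvial loam. Inhibition (%) assessed at 14 days, duplicate pots per concentration.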

[7] = system: Monochoria vaginalis; assay: Test Example 2: herbicidal effect test by application during growth period of paddy rice; details: Pontederia vaginalis; 120 g per 10 ares; applied seven days after sowing, flooded pots; 14 days after application; read-out: weed inhibition rate
In short: as §1

[8] = system: Scirpus juncoides; assay: as above; details: Schoenoplectiella juncoides; 120 g per 10 ares; applied seven days after sowing, flooded pots; 14 days after application; read-out: weed inhibition rate
In short: as §1

[9] = system: Digitaria ciliaris; assay: Test Example 7: herbicidal effect test by soil application in upland field (low dose); details: Digitaria ciliaris, 7.5 g per 10 ares, sprayed one day after sowing, 14 days after application, read-out: weed inhibition rate
In short: as §2

Cc1ccccc1CO[C@@H]1C[C@]2(C(C)C)O[C@@]1(C)C[C@@H]2Br [1-16, (1S,2R,4R,5S)-5-bromo-1-methyl-2-[(2-methylphenyl)methoxy]-4-isopropyl-7-oxabicyclo[2.2.1]heptane]
≥ 80%: inhibition at 1200 g/ha [1] | inhibition at 1200 g/ha [2] | inhibition at 1200 g/ha [3] | inhibition at 75 g/ha [4] | inhibition at 75 g/ha [5] | inhibition at 75 g/ha [6]

CC(C)[C@]12C[C@@H](OCc3c(F)cccc3F)[C@](C)(CC1C)O2 (stereo partly drawn) [1-111, (1S,2R,4R)-2-((2,6-difluorobenzyl)oxy)-4-isopropyl-1,5-dimethyl-7-oxabicyclo[2.2.1]heptane]
≥ 80%: inhibition at 1200 g/ha [1] | inhibition at 1200 g/ha [7] | inhibition at 1200 g/ha [8] | inhibition at 1200 g/ha [2] | inhibition at 1200 g/ha [3] | inhibition at 75 g/ha [4] | inhibition at 75 g/ha [5] | inhibition at 75 g/ha [9] | inhibition at 75 g/ha [6]

CCC1C[C@]2(C)O[C@@]1(C(C)C)C[C@H]2OCc1ccccc1C (stereo partly drawn) [1-123, (1R,4S,5R)-2-ethyl-1-isopropyl-4-methyl-5-((2-methylbenzyl)oxy)-7-oxabicyclo[2.2.1]heptane]
≥ 80%: inhibition at 1200 g/ha [1] | inhibition at 1200 g/ha [2] | inhibition at 1200 g/ha [3] | inhibition at 75 g/ha [4] | inhibition at 75 g/ha [5] | inhibition at 75 g/ha [9]

CCC1C[C@]2(C)O[C@@]1(C(C)C)C[C@H]2OCc1ccccc1F (stereo partly drawn) [1-126, (1R,4S,5R)-2-ethyl-5-[(2-fluorobenzyl)oxy]-1-isopropyl-4-methyl-7-oxabicyclo[2.2.1]heptane]
≥ 80%: inhibition at 1200 g/ha [1] | inhibition at 1200 g/ha [2] | inhibition at 1200 g/ha [3] | inhibition at 75 g/ha [4] | inhibition at 75 g/ha [5] | inhibition at 75 g/ha [9] | inhibition at 75 g/ha [6]

CCOC(C)O[C@H]1C[C@]2(C)O[C@@]1(C(C)C)C[C@H]2OCc1ccccc1C (stereo partly drawn) [1-208, (1R,2S,4S,5R)-2-(1-ethoxyethoxy)-1-isopropyl-4-methyl-5-((2-methylbenzyl)oxy)-7-oxabicyclo[2.2.1]heptane]
≥ 80%: inhibition at 1200 g/ha [1] | inhibition at 1200 g/ha [8] | inhibition at 1200 g/ha [2] | inhibition at 1200 g/ha [3] | inhibition at 75 g/ha [4] | inhibition at 75 g/ha [5] | inhibition at 75 g/ha [9] | inhibition at 75 g/ha [6]

CCOC(C)O[C@H]1C[C@]2(C)O[C@@]1(C(C)C)C[C@H]2OCc1c(F)cccc1F (stereo partly drawn) [1-223, (1S,2R,4R,5S)-2-((2,6-difluorobenzyl)oxy)-5-(1-ethoxyethoxy)-4-isopropyl-1-methyl-7-oxabicyclo[2.2.1]heptane]
≥ 80%: inhibition at 1200 g/ha [1] | inhibition at 1200 g/ha [8] | inhibition at 1200 g/ha [2] | inhibition at 1200 g/ha [3] | inhibition at 75 g/ha [4] | inhibition at 75 g/ha [5] | inhibition at 75 g/ha [9] | inhibition at 75 g/ha [6]

CC(C)[C@]12C[C@@H](OCc3ccccc3F)[C@](C)(C[C@@H]1OS(=O)(=O)C(F)(F)F)O2 [1-525, (1R,2S,4S,5R)-5-((2-fluorobenzyl)oxy)-1-isopropyl-4-methyl-7-oxabicyclo[2.2.1]heptan-2-yl trifluoromethanesulfonate]
≥ 80%: inhibition at 1200 g/ha [1] | inhibition at 1200 g/ha [2] | inhibition at 1200 g/ha [3] | inhibition at 75 g/ha [4] | inhibition at 75 g/ha [5] | inhibition at 75 g/ha [9]

Cc1cccc(CO[C@@H]2C[C@]3(C(C)C)O[C@@]2(C)C[C@@H]3Br)c1 [1-680, (1S,2R,4R,5S)-5-bromo-1-methyl-2-[(3-methylphenyl)methoxy]-4-isopropyl-7-oxabicyclo[2.2.1]heptane]
≥ 80%: inhibition at 1200 g/ha [1] | inhibition at 1200 g/ha [7] | inhibition at 1200 g/ha [8] | inhibition at 1200 g/ha [2] | inhibition at 1200 g/ha [3] | inhibition at 75 g/ha [4] | inhibition at 75 g/ha [5] | inhibition at 75 g/ha [9] | inhibition at 75 g/ha [6]

Cc1ccc(CO[C@@H]2C[C@]3(C(C)C)O[C@@]2(C)C[C@@H]3Br)cc1 [1-681, (1S,2R,4R,5S)-5-bromo-1-methyl-2-[(4-methylphenyl)methoxy]-4-isopropyl-7-oxabicyclo[2.2.1]heptane]
≥ 80%: inhibition at 1200 g/ha [1] | inhibition at 1200 g/ha [7] | inhibition at 1200 g/ha [8] | inhibition at 1200 g/ha [2] | inhibition at 1200 g/ha [3] | inhibition at 75 g/ha [4] | inhibition at 75 g/ha [5] | inhibition at 75 g/ha [6]

CC(C)[C@]12C[C@@H](OCc3ccc(Cl)cc3)[C@](C)(C[C@@H]1Br)O2 [1-693, (1S,2R,4R,5S)-5-bromo-2-[(4-chlorophenyl)methoxy]-1-methyl-4-isopropyl-7-oxabicyclo[2.2.1]heptane]
≥ 80%: inhibition at 1200 g/ha [1] | inhibition at 1200 g/ha [7] | inhibition at 1200 g/ha [8] | inhibition at 1200 g/ha [2] | inhibition at 1200 g/ha [3] | inhibition at 75 g/ha [4] | inhibition at 75 g/ha [5] | inhibition at 75 g/ha [6]

CC(C)[C@]12C[C@@H](OCc3ccccc3C#N)[C@](C)(C[C@@H]1Br)O2 [1-703, 2-[[(1S,2R,4R,5S)-5-bromo-1-methyl-4-isopropyl-7-oxabicyclo[2.2.1]heptan-2-yl]oxymethyl]benzonitrile]
≥ 80%: inhibition at 1200 g/ha [1] | inhibition at 1200 g/ha [7] | inhibition at 1200 g/ha [8] | inhibition at 1200 g/ha [2] | inhibition at 1200 g/ha [3] | inhibition at 75 g/ha [4] | inhibition at 75 g/ha [5] | inhibition at 75 g/ha [6]

CC(C)[C@]12C[C@@H](OCc3ccc(Cl)cc3Cl)[C@](C)(C[C@@H]1Br)O2 [1-717, (1S,2R,4R,5S)-5-bromo-2-[(2,4-dichlorophenyl)methoxy]-1-methyl-4-isopropyl-7-oxabicyclo[2.2.1]heptane]
≥ 80%: inhibition at 1200 g/ha [1] | inhibition at 1200 g/ha [7] | inhibition at 1200 g/ha [8] | inhibition at 1200 g/ha [2] | inhibition at 1200 g/ha [3] | inhibition at 75 g/ha [4] | inhibition at 75 g/ha [5]

COC1(OC)C[C@]2(C)O[C@@]1(C(C)C)C[C@H]2OCc1ccccc1F [1-935, (1R,4S,5R)-5-((2-fluorobenzyl)oxy)-1-isopropyl-2,2-dimethoxy-4-methyl-7-oxabicyclo[2.2.1]heptane]
≥ 80%: inhibition at 1200 g/ha [1] | inhibition at 1200 g/ha [7] | inhibition at 1200 g/ha [8] | inhibition at 1200 g/ha [2] | inhibition at 1200 g/ha [3] | inhibition at 75 g/ha [4] | inhibition at 75 g/ha [5] | inhibition at 75 g/ha [9]

CC(C)[C@]12C[C@@H](OCc3c(F)cccc3Br)[C@](C)(C[C@@H]1Br)O2 [1-1600, (1S,2R,4R,5S)-5-bromo-2-[(2-bromo-6-fluorophenyl)methoxy]-1-methyl-4-isopropyl-7-oxabicyclo[2.2.1]heptane]
≥ 80%: inhibition at 1200 g/ha [1] | inhibition at 1200 g/ha [7] | inhibition at 1200 g/ha [8] | inhibition at 1200 g/ha [2] | inhibition at 1200 g/ha [3] | inhibition at 75 g/ha [4] | inhibition at 75 g/ha [5] | inhibition at 75 g/ha [9] | inhibition at 75 g/ha [6]

CC(C)[C@]12C[C@@H](OCc3cc(F)ccc3F)[C@](C)(CC1=O)O2 [2-18, (1R,4S,5R)-5-((2,5-difluorobenzyl)oxy)-1-isopropyl-4-methyl-7-oxabicyclo[2.2.1]heptan-2-one]
≥ 80%: inhibition at 1200 g/ha [1] | inhibition at 1200 g/ha [7] | inhibition at 1200 g/ha [8] | inhibition at 1200 g/ha [2] | inhibition at 1200 g/ha [3] | inhibition at 75 g/ha [4] | inhibition at 75 g/ha [5] | inhibition at 75 g/ha [9] | inhibition at 75 g/ha [6]

CC(C)[C@]12C[C@@H](OCc3c(Cl)cccc3Cl)[C@](C)(CC1=O)O2 [2-26, (1R,4S,5R)-5-((2,6-dichlorobenzyl)oxy)-1-isopropyl-4-methyl-7-oxabicyclo[2.2.1]heptan-2-one]
≥ 80%: inhibition at 1200 g/ha [1] | inhibition at 1200 g/ha [2] | inhibition at 1200 g/ha [3] | inhibition at 75 g/ha [4] | inhibition at 75 g/ha [5] | inhibition at 75 g/ha [9] | inhibition at 75 g/ha [6]

CC(C)[C@]12C[C@@H](OCc3ccc(F)cc3)[C@](C)(CC1=O)O2 [2-349, (1R,4S,5R)-5-((4-fluorobenzyl)oxy)-1-isopropyl-4-methyl-7-oxabicyclo[2.2.1]heptan-2-one]
≥ 80%: inhibition at 1200 g/ha [1] | inhibition at 1200 g/ha [7] | inhibition at 1200 g/ha [2] | inhibition at 1200 g/ha [3] | inhibition at 75 g/ha [4] | inhibition at 75 g/ha [5] | inhibition at 75 g/ha [9] | inhibition at 75 g/ha [6]
